# Earlier results in article PMC2766265 (Tetrahedron, 2008).
# Tests used:
# [1] = test system: κ-opioid receptor
# [2] = test system: opioid-receptor subtypes
compound,measurement,setting,value
"COC(=O)[C@@H]1C[C@H](OC(C)=O)C(=O)[C@H]2[C@@]1(C)CC[C@H]1C(=O)O[C@H](c3ccoc3)C[C@]21C [Compound 1, Salvinorin A]",agonist activity at the κ-opioid receptor,[1],potent and selective agonist
"C[C@]12C[C@H](c3ccoc3)OC(=O)[C@H]1CC[C@@]13COC(=O)[C@@H]1C=CC[C@H]23 [Compound 2, salviarin]",binding to any of the opioid-receptor subtypes,[2],none of these diterpenes showed significant binding
"CC(=O)OC1C=CC2C(=O)OCC23CCC2C(=O)OC(c4ccoc4)C(OC(C)=O)C2(C)C13 (stereo not drawn) [Compound 3, splendidin]",binding to any of the opioid-receptor subtypes,[2],none of these diterpenes showed significant binding
